Laboratory results taken from patent US6271254A, “Pharmaceutical compositions containing R-α-lipoic acid or S-α-lipoic acid as active ingredient” (ASTA Pharma Aktiengesellschaft, priority 1989, dated 2001).

Columns and labels:
rat [1] = assay: carragheen-induced oedema test in the rat; format: in vivo; details: for ED50: 50% inhibition of paw oedema, read-out: anti-inflammatorily active ED50
Experimental: Caragheen-induced edema test for anti-inflammatory activity:
The investigation is conducted in carragheen-induced edema of the rat paw after the method of MOERSDORF and co-workers (Arch.int.Pharmacodyn. 192, 111-127 (1971)). The anti-inflammatory activity is, for example, given as inhibition of edema in percent as compared to the untreated control group. Application is oral or intraperitoneal in all experiments. The substance is administered orally or intraperitoneally 1 hour after triggering the inflammation. The ED50 is the dose in mg/kg at which there is 50% inhibition of the paw oedema.

rat [2] = assay: Randall-Selitto inflammatory pain test in the rat; format: in vivo; details: po, per os; for ED50: 0.5 h, Randall-Selitto test, rat, 50% analgesic activity, read-out: analgesically effective ED50
Experimental: Randall-Selitto test (inflammatory pain in the rat)
By analogy with the method according to RANDALL and SELITTO (L. O. Randall and J. Selitto, Arch. int. Pharmacodyn. Vol. 111, pages 409-418 (1957)), rats receive subplantar injections of 0.1 ml of a 20% (in demineralized water) brewer's yeast suspension into the right back paw. 2 1/2 hours thereafter the test substances are administered and 30 minutes thereafter the pain threshold (in grams) is measured as pain in the inflamed paw, using a commercially available algesia meter. The criterion is the defense reaction shown by the animals in pulling the paw away and/or freeing themselves from the research worker's grip. The activity of the substance is measured in the form of the increase in the pain threshold as compared to an untreated control group. The course of the experiment differs from that in the original method in that the substances are only given 21/2 hours after provocation of the edema and not simultaneously therewith. In so doing the intention is to prevent the development of the edema being inhibited by a possible anti-inflammatory activity and masking or feigning analgesia.
The ED50 is determined using the linear regression method. The ED50 here is the dose in mg/kg it which mathematically there is a 50% analgesic activity.

mouse = assay: acid writhing pain test in the mouse (acetic acid test); format: in vivo; details: po, per os, 50% inhibition of writhing syndrome, read-out: analgesically active ED50
Excerpt: Acetic acid test (writhing test) in the mouse Method: In the acetic acid test after KOSTER et al. (Fed. Proc., Vol. 18, page 412 (1959)) the pain stimulus triggered by an intraperitoneal injection of 1% acetic acid. The pain reaction is expressed in the form of the characteristic stretching of the animals ("writhing syndrome") which continues at irregular time intervals form some time after injection of the acetic acid. The dose-dependent inhibition of the frequency of the stretching movement as compared to an untreated control group is expressed in percent as analgesic activity. Evaluation is by determination type the ED50 (Method of linear regression). The ED50 is the dose in mg/kg at which there is a 50% inhibition of the "writhing syndrome".

[3] = acute toxicity in the mouse (method of LITCHFIELD and WILCOXON); details: in vivo, oral administration
Experimental: The acute toxicity of R-α-lipoic acid and S-α-lipoic acid in the mouse (expressed as the LD50 mg/kg; method of LITCHFIELD and WILCOXON, J. Pharmacol. Exp Ther. 95, 99 (1949)), is for example in excess of 100 mg/kg in the case of oral administration.

[4] = analgesic and anti-inflammatory activity compared with the racemate (general statement, no test named); format: in vivo; details: vs racemate
[5] = test system: human immunodeficiency virus HIV (HIV-1, HIV-2); assay: growth-inhibiting activity against retroviruses, in particular HIV (HIV-1, HIV-2); format: cell-based; details: in vitro; in words
Excerpt: 3. Determination of reverse transcriptase in culture supernatant
4. Determination of p24 antigen in culture supernatant
In the case of the in vitro experiments the active ingredient is used, for example in benzyl alcohol as solvent.
The following substrates may, for example, be used for the in vitro investigations of the replication behavior of retroviruses, in particular HIV:
1. Virus-containing RPMI 1640 medium, for example 1X liquid 041-01875 (synthetic culture medium from Gibeo according to Moore, Gerner and Franklin, H. A. (1967), J.A.M.A. 199; 519) in a concentration of 2×10^3 -1×10^4 infectious units (PFU)/ml
2. The cell lines Jurkat Clone E6-1, Sup T1 and HeLa CT4.

[6] = analgesic, anti-inflammatory, anti-arthrotic and cytoprotective activity in investigatory models; format: in vivo, mouse, rat, chicken; details: in words
Excerpt: The optical isomers of α-lipoic acid display a good analgesic, anti-inflammatory, anti-arthrotic and cytoprotective activity in, for example, the following investigatory models:
MgSO4 writhing test in the mouse according to GYIRES et al. (Arch.int.pharmacodyn.therap. 267, 131-140 (1984))
Adjuvans arthritis in the rat according to NEWBOULD (Brit.J.Pharmacol. 21, 127-136 (1963))
TPA- or arachidonic acid-induced mouse ear oedema according to YOUNG et al. (J.Invest.Dermatol. 80, 48-52 (1983))
Na-mono-iodazetate-induced arthrosis in rats or chickens according to KALBHEN in: Arthrosis deformans, Eular-Verlag, Basel/Switzerland, 1982
TPA-induced arthrosis in rats according to WEISCHER (Agents and Actions 23, 1/2 (1988))
Intestinal ulcerations in rats according to DEL SOLDATO (Agents and Actions 16, 393-396 (1985))
Colitis-model in the rat according to WEISCHER at al (Agents and Actions, vol. 26, 1/2, page 222 to 223, (1989))
Ethanol-ulcer model in the rat (determination for example of a cytoprotective activity).

[7] = po, carragheen-induced oedema, rat, per os

Row | SMILES | ED50 (rat [1]; [7]) | ED50 (rat [2]) | ED50 (mouse) | LD50 [3] | minimal effective dose (rat [1]; Rattus norvegicus, po, carragheen-induced oedema test, per os, read-out: minimum anti-inflammatorily effective dose) | anti-inflammatory activity superior to that of racemic α-lipoic acid (factor) (rat [1]; carragheen-induced oedema, rat, peroral application) | anti-inflammatory activity stronger than that of the racemate (factor) [4] | growth-inhibiting activity against retroviruses, in particular HIV (HIV-1, HIV-2) [5] | antinociceptive and cytoprotective activity (beside anti-inflammatory and anti-arthritic main activity) [6] | minimal effective dose (rat [2]; Rattus norvegicus, Randall-Selitto pain test, read-out: minimum analgesically effective dose) | anti-inflammatory and cytoprotective activity (beside analgesic main activity) [6]
1 | O=C(O)CCCCC1CCSS1 (racemic) [racemate, 1,2-dithiacyclopentane-3-valeric acid, reference compound] | 49.7 mg/kg | 45.9 mg/kg | 51.3 mg/kg |  |  |  |  |  |  |  | 
2 | O=C(O)CCCC[C@@H]1CCSS1 [R-α-lipoic acid] | 4.9 mg/kg |  |  | > 100 mg/kg | 1 mg/kg | ≥ 10 factor | 10 factor | growth-inhibiting activity | to a lesser extent |  | 
3 | O=C(O)CCCC[C@H]1CCSS1 [S-α-lipoic acid] |  | 7.5 mg/kg | 10.2 mg/kg | > 100 mg/kg |  |  |  | growth-inhibiting activity |  | 1 mg/kg | to a lesser extent
